Results as given in US20100267561A1, “HERBICIDAL PYRIDAZINONE DERIVATIVES” (priority 2007, published 2010).

Tests used:
Assay type in all cases: in vivo
canola (Brassica rapa) = test: Test C pre-/postemergence plant response
Procedure, shortened: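 Plant response was judged by eye against untreated controls following 15 to 25 days in a controlled growth environment, using 0 for no effect and 100 for complete control. Treatments were made both preemergence and postemergence, the latter on plants of 1- to 4-leaf stage.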

[1] = test system: Russian thistle (Salsola kali); test: Test E pre-/postemergence plant response; conditions: Preemergence, scale 0 to 100
Procedure, shortened: (§1)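 Scores are visual estimates of control on a 0 to 100 scale, made against untreated plants 14 to 21 days after treatment in the greenhouse. Application was preemergence to sown seeds or postemergence to 2–18 cm plants (1- to 4-leaf stage), using a surfactant-containing non-phytotoxic solvent formulation.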

[2] = test system: Virginia (V.) dayflower (Commelina virginica); test: Test E pre-/postemergence plant response; conditions: scale 0 to 100
Procedure, shortened: as §1

[3] = test system: black mustard (Brassica nigra); test: Test E pre-/postemergence plant response; conditions: scale 0 to 100
Procedure, shortened: as §1

[4] = test system: common sowthistle (Sonchus oleraceous); test: Test E pre-/postemergence plant response; conditions: scale 0 to 100
Procedure, shortened: as §1

kochia (Kochia scoparia) = test: Test E pre-/postemergence plant response; conditions: scale 0 to 100
Procedure, shortened: as §1

[5] = test system: prickly sida (Sida spinosa); test: Test E pre-/postemergence plant response; conditions: scale 0 to 100
Procedure, shortened: as §1

[6] = Preemergence, 8 g ai/ha, scale 0 to 100 (0 no effect, 100 complete control)
[7] = Preemergence, 16 g ai/ha, scale 0 to 100 (0 no effect, 100 complete control)
[8] = Preemergence, 31 g ai/ha, scale 0 to 100 (0 no effect, 100 complete control)
[9] = Preemergence, 62 g ai/ha, scale 0 to 100, 0 no effect, 100 complete control

Cc1cc(-c2ccc(Cl)cc2)nn1-c1c(OC(=O)C(C)C)cnn(C)c1=O [Compound 34]
0: Plant response rating, Canola (canola (Brassica rapa); [6]) | Plant response rating, Canola (canola (Brassica rapa); [7]) | Plant response rating, Canola (canola (Brassica rapa); [8]) | Plant response rating, Canola (canola (Brassica rapa); [9]) | Plant response rating, Thistle, Russian ([1]; 16 g ai/ha) | Plant response rating, Thistle, Russian ([1]; 31 g ai/ha) | Plant response rating, Thistle, Russian ([1]; 62 g ai/ha) | Plant response rating, Dayflower, V. ([2]; 16 g ai/ha, Preemergence) | Plant response rating, Dayflower, V. ([2]; 31 g ai/ha, Preemergence) | Plant response rating, Dayflower, V. ([2]; 62 g ai/ha, Preemergence) | Plant response rating, Dayflower, V. ([2]; Postemergence, 8 g ai/ha) | Plant response rating, Dayflower, V. ([2]; Postemergence, 16 g ai/ha) | Plant response rating, Dayflower, V. ([2]; Postemergence, 31 g ai/ha) | Plant response rating, Dayflower, V. ([2]; Postemergence, 62 g ai/ha) | Plant response rating, Mustard, Black ([3]; 16 g ai/ha, Preemergence) | Plant response rating, Mustard, Black ([3]; 31 g ai/ha, Preemergence) | Plant response rating, Mustard, Black ([3]; 62 g ai/ha, Preemergence) | Plant response rating, Mustard, Black ([3]; Postemergence, 8 g ai/ha) | Plant response rating, Mustard, Black ([3]; Postemergence, 16 g ai/ha) | Plant response rating, Mustard, Black ([3]; Postemergence, 31 g ai/ha) | Plant response rating, Mustard, Black ([3]; Postemergence, 62 g ai/ha) | Plant response rating, Sowthistle ([4]; 16 g ai/ha, Preemergence) | Plant response rating, Sowthistle ([4]; 31 g ai/ha, Preemergence) | Plant response rating, Sowthistle ([4]; 62 g ai/ha, Preemergence) | Plant response rating, Sowthistle ([4]; Postemergence, 8 g ai/ha) | Plant response rating, Sowthistle ([4]; Postemergence, 16 g ai/ha) | Plant response rating, Sowthistle ([4]; Postemergence, 31 g ai/ha) | Plant response rating, Sowthistle ([4]; Postemergence, 62 g ai/ha) | Plant response rating, Kochia (kochia (Kochia scoparia); 16 g ai/ha, Preemergence) | Plant response rating, Kochia (kochia (Kochia scoparia); 31 g ai/ha, Preemergence) | Plant response rating, Kochia (kochia (Kochia scoparia); 62 g ai/ha, Preemergence) | Plant response rating, Prickly Sida ([5]; 16 g ai/ha, Preemergence) | Plant response rating, Prickly Sida ([5]; 31 g ai/ha, Preemergence) | Plant response rating, Prickly Sida ([5]; 62 g ai/ha, Preemergence) | Plant response rating, Prickly Sida ([5]; Postemergence, 8 g ai/ha) | Plant response rating, Prickly Sida ([5]; Postemergence, 16 g ai/ha) | Plant response rating, Prickly Sida ([5]; Postemergence, 31 g ai/ha) | Plant response rating, Prickly Sida ([5]; Postemergence, 62 g ai/ha)

CCc1cc(-c2ccc(C(F)(F)F)cc2)nn1-c1c(O)cnn(C)c1=O [Compound 11, 4-[5-ethyl-3-[4-(trifluoromethyl)phenyl]-1H-pyrazol-1-yl]-5-hydroxy-2-methyl-3(2H)-pyridazinone]
0: Plant response rating, Canola (canola (Brassica rapa); Postemergence, 8 g ai/ha, scale 0 to 100, 0 no effect, 100 complete control) | Plant response rating, Canola (canola (Brassica rapa); Postemergence, 16 g ai/ha, scale 0 to 100, 0 no effect, 100 complete control) | Plant response rating, Canola (canola (Brassica rapa); Postemergence, 31 g ai/ha, scale 0 to 100, 0 no effect, 100 complete control) | Plant response rating, Canola (canola (Brassica rapa); Postemergence, 62 g ai/ha, scale 0 to 100, 0 no effect, 100 complete control) | Plant response rating, Canola (canola (Brassica rapa); [6]) | Plant response rating, Canola (canola (Brassica rapa); [7]) | Plant response rating, Canola (canola (Brassica rapa); [8]) | Plant response rating, Canola (canola (Brassica rapa); [9]) | Plant response rating, Thistle, Russian ([1]; 31 g ai/ha) | Plant response rating, Dayflower, V. ([2]; 4 g ai/ha, Postemergence) | Plant response rating, Dayflower, V. ([2]; 8 g ai/ha, Preemergence) | Plant response rating, Dayflower, V. ([2]; 16 g ai/ha, Preemergence) | Plant response rating, Dayflower, V. ([2]; 31 g ai/ha, Preemergence) | Plant response rating, Dayflower, V. ([2]; Postemergence, 8 g ai/ha) | Plant response rating, Dayflower, V. ([2]; Postemergence, 16 g ai/ha) | Plant response rating, Dayflower, V. ([2]; Postemergence, 31 g ai/ha) | Plant response rating, Dayflower, V. ([2]; Preemergence, 4 g ai/ha) | Plant response rating, Mustard, Black ([3]; 4 g ai/ha, Postemergence) | Plant response rating, Mustard, Black ([3]; 8 g ai/ha, Preemergence) | Plant response rating, Mustard, Black ([3]; 16 g ai/ha, Preemergence) | Plant response rating, Mustard, Black ([3]; 31 g ai/ha, Preemergence) | Plant response rating, Mustard, Black ([3]; Postemergence, 8 g ai/ha) | Plant response rating, Mustard, Black ([3]; Postemergence, 16 g ai/ha) | Plant response rating, Mustard, Black ([3]; Postemergence, 31 g ai/ha) | Plant response rating, Mustard, Black ([3]; Preemergence, 4 g ai/ha) | Plant response rating, Sowthistle ([4]; 4 g ai/ha, Postemergence) | Plant response rating, Sowthistle ([4]; 16 g ai/ha, Preemergence) | Plant response rating, Sowthistle ([4]; Postemergence, 8 g ai/ha) | Plant response rating, Sowthistle ([4]; Postemergence, 16 g ai/ha) | Plant response rating, Sowthistle ([4]; Postemergence, 31 g ai/ha) | Plant response rating, Kochia (kochia (Kochia scoparia); 4 g ai/ha, Postemergence) | Plant response rating, Kochia (kochia (Kochia scoparia); 16 g ai/ha, Preemergence) | Plant response rating, Kochia (kochia (Kochia scoparia); 31 g ai/ha, Preemergence) | Plant response rating, Kochia (kochia (Kochia scoparia); Postemergence, 8 g ai/ha) | Plant response rating, Kochia (kochia (Kochia scoparia); Postemergence, 16 g ai/ha) | Plant response rating, Kochia (kochia (Kochia scoparia); Postemergence, 31 g ai/ha) | Plant response rating, Kochia (kochia (Kochia scoparia); Preemergence, 4 g ai/ha) | Plant response rating, Prickly Sida ([5]; 4 g ai/ha, Postemergence) | Plant response rating, Prickly Sida ([5]; 16 g ai/ha, Preemergence) | Plant response rating, Prickly Sida ([5]; 31 g ai/ha, Preemergence) | Plant response rating, Prickly Sida ([5]; Postemergence, 8 g ai/ha) | Plant response rating, Prickly Sida ([5]; Postemergence, 16 g ai/ha) | Plant response rating, Prickly Sida ([5]; Postemergence, 31 g ai/ha) | Plant response rating, Prickly Sida ([5]; Preemergence, 4 g ai/ha)
